Legend:
[1] = target: T1, PRMT5-MEP50 enzyme complex (Homo sapiens, UniProt O14744); test: PRMT5-MEP50 Enzyme Methylation Assay; assay type: biochemical; conditions: recombinant full-length PRMT5-MEP50 1.0 nM, 75 nM biotinylated H4R3(Me1) peptide, 15 μM SAM; 60 minutes pre-incubation, 150 minutes at 37° C.
T1 construct: 1.25 nM of Full-length (FL)-PRMT5-MEP50 enzyme complex; made in house; host or cells: baculovirus-transfected Sf21 cells
Experimental: PRMT5-MEP50 Enzyme Methylation Assay
PRMT5-MEP50 biochemical assay is a direct measurement of the methylation activity of the enzyme complex on a short peptide substrate derived from the N-terminus of H4 histone. Methylation experiment was performed with recombinant PRMT5-MEP50 protein complex. The assessment of inhibitory effect of small molecules was measured by the effectiveness of the compounds to inhibit this reaction (EC50).
In this assay, the potency (EC50) of each compound was determined from a twenty-point (1:2 serial dilution; top compound concentration of 100000 nM) titration curve using the following outlined procedure. To each well of a white ProxiPlus 384 well-plate, 100 nL of compound (1% DMSO in final assay volume of 10 μL) was dispensed, followed by the addition of 8 μL of 1× assay buffer (50 mM Bicine pH 8.0, 1 mM DTT, 0.004% Tween20, 0.01% BSA) containing 1.25 nM of Full-length (FL)-PRMT5-MEP50 enzyme complex (recombinant proteins from baculovirus-transfected Sf21 cells: FL-PRMT5; MW=[…] and FL-MEP50; MW=38614) and 1 μL of 150 μM S-(5′-Adenosyl)-L-Methionine Chloride (SAM). Plates were sealed and placed in a 37° C. humidified chamber for a 60 minutes pre-incubation with compound. Subsequently, each reaction was initiated by the addition of 1 μL 1× assay buffer containing 750 nM biotinylated H4R3(Me1) peptide. The final reaction in each well of 10 μL consists of 1.0 nM PRMT5-MEP50, 75 nM biotinylated-peptide, and 15 μM SAM. Methylation reactions were allowed to proceed for 150 minutes in a sealed plate at 37° C. Reactions were immediately quenched by the addition of 1 μL of 5% formic acid. Plates were then frozen and shipped to SAMDITM Tech Inc. to determine the percent conversion from H4R3(Me1) to H4R3(Me2). Dose-response curves were generated by plotting percent effect (% product conversion; Y-axis) vs. Log10 compound concentrations (X-axis). EC50 values were determined by non-linear regression according to models for sigmoidal (4 parameters) dose-response curves.

[2] = target: T2, PRMT5 (Homo sapiens, UniProt O14744); test: PRMT5 Cell Target Engagement (TE) Assay; assay type: cell-based; conditions: MCF-7 cells, treated for 3 days; symmetrically dimethylated (SDMA) nuclear proteins by high content imaging
T2 construct: endogenous in cells; host or cells: MCF-7
T2 sequence (O14744 whole entry): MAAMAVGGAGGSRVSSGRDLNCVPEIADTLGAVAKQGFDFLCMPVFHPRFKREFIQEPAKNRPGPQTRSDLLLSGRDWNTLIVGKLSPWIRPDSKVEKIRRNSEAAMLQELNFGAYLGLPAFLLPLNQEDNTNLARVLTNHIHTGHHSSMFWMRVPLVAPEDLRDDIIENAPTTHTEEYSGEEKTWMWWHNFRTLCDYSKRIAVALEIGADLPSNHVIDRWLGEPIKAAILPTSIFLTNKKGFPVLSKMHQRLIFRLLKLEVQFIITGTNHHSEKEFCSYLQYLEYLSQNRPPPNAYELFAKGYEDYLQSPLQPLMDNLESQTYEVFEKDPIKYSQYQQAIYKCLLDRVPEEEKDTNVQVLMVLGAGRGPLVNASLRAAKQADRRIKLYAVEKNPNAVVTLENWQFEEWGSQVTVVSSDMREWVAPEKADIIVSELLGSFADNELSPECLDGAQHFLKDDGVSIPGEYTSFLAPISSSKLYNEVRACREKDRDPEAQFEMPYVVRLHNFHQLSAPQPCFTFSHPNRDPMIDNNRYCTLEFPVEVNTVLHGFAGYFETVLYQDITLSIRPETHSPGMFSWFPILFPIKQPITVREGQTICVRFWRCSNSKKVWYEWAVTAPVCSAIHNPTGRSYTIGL
T2 sequence (Q9BQA1 whole entry partner): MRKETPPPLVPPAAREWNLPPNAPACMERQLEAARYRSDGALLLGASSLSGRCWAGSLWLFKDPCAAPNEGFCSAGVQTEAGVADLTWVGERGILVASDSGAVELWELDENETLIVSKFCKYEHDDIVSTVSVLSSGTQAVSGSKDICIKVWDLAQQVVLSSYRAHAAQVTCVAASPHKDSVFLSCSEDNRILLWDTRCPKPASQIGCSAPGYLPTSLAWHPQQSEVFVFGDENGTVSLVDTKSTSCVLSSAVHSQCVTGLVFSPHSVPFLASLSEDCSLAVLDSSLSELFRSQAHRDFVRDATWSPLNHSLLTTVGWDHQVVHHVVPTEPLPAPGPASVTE
From the text: PRMT5 Cell Target Engagement (TE) Assay
The PRMT5 TE assay is a biomarker assay for identifying compounds that inhibit symmetric dimethylation of arginine (SDMA) of PRMT5 substrates. The following substrates have been reported for PRMT5: histone H2A and H4 R3, Histone H3 R2, Histone H3 R8, spliceosome Sm proteins, ribosomal protein RPS10, p53, FEN1, nucleoplasmin, nucleolin, EGFR and EBNA. The assay focuses on detecting symmetrically dimethylated nuclear proteins using high content imaging technology. Detection of the expression of symmetrically dimethylated nuclear proteins is through a mixture of primary rabbit monoclonal antibodies to SDMA (CST 13222), which in turn recognized by an Alexafluor 488 dye-conjugated anti-rabbit IgG secondary antibody. The IN Cell Analyzer 2200 or Opera-Phenix measures nuclear Alexafluor 488 fluorescent dye intensity that is directly related to the level of expression of symmetrically dimethylated nuclear proteins at the single cell level. Nuclear AF488 dye intensities are compared to the mean value for DMSO treated cells (MIN) to report percent of inhibition for each compound-treated well.
In this assay, the cell potency (EC50) of each compound was determined from a ten point (1:3 serial dilution; top compound concentration of 10000 nM) titration curve using the following outlined procedure. Each well of a BD falcon collagen coated black/clear bottom 384-well plate was seeded with 4000 MCF-7 cells in 30 μl media and allowed to attach for 5 h. Media is ATCC-formulated Eagle's Minimum Essential Medium, Catalog No. 30-2003. To make the complete growth medium, the following components were added to the base medium: 0.01 mg/mL human recombinant insulin; fetal bovine serum to a final concentration of 10%. Additional 30 µl of media containing 2× compounds were added to each well. Cells were treated for 3 days in 37° C. CO2 incubator. On day 3, cells were fixed with Cytofix, permeabilized with 0.4% Triton-X-100/Cytofix, and washed with D-PBS without Ca/Mg. Cells were blocked with Licor Odessey blocking reagent for 1 h at room temperature, followed by incubation with anti-SDMA (1:1000) antibody at 4° C. overnight. 1° antibody was removed, followed by three washings with DPBS without Ca/Mg and 0.05% Tween20. Hoechst (5 μg/mL), Cell Mask deep stain (1:2000) and Alexa488-conjugated goat anti-rabbit IgG (2 μg/mL) was added for 1 h at room temperature. A final washing step (three washes) was performed before sealing plate for imaging on In Cell Analyzer 2200 or Opera-Phenix. Images from analyzer were uploaded to Columbus (at WP or BOS) for image analysis. IC50 values were determined by 4 parameters robust fit of percent fluorescence units vs. (Log10) compound concentrations.

T1 sequence (O14744 whole entry): as the sequence (O14744 whole entry) above
T1 sequence (Q9BQA1 whole entry partner): as the sequence (Q9BQA1 whole entry partner) above

Row | EC50 [1] [nM] | EC50 [2] [nM] | SMILES
1 | 0.9 | 6.9 | CC(=O)N1CCC(Nc2cc(C(=O)N3CC[C@H](N4CCc5ccccc5C4)[C@@H](O)C3)c(F)cn2)CC1 [Example 1, 1-{4-[(4-{[(3S,4S)-4-(3,4-dihydroisoquinolin-2(1H)-yl)-3-hydroxypiperidin-1-yl]carbonyl}-5-fluoropyridin-2-yl)amino]piperidin-1-yl}ethanone]
2 | – | 165 | [2H]C1([2H])c2ccccc2CCN1[C@@H]1CCN(C(=O)c2cc(NC3CCN(C(C)=O)CC3)ncc2F)C[C@H]1O [Example 1c, 1-(4-((4-((3R,4R)-4-(3,4-dihydroisoquinolin-2(1H)-yl-1,1-d2)-3-hydroxypiperidine-1-carbonyl)-5-fluoropyridin-2-yl)amino)piperidin-1-yl)ethan-1-one]
3 | 0.9 | 2 | [2H]C1([2H])c2ccccc2CCN1[C@H]1CCN(C(=O)c2cc(NC3CCN(C(C)=O)CC3)ncc2F)C[C@@H]1O [Example 1b, 1-(4-((4-((3S,4S)-4-(3,4-dihydroisoquinolin-2(1H)-yl-1,1-d2)-3-hydroxypiperidine-1-carbonyl)-5-fluoropyridin-2-yl)amino)piperidin-1-yl)ethan-1-one]
4 | 1.6 | 4.7 | O=C(c1cn2cc(C3CC3(F)F)cnc2n1)N1CC[C@H](N2CCc3ccccc3C2)[C@@H](O)C1 (stereo partly drawn) [Example 2, (6-(2,2-difluorocyclopropyl)imidazo[1,2-a]pyrimidin-2-yl)((3S,4S)-4-(3,4-dihydroisoquinolin-2(1H)-yl)-3-hydroxypiperidin-1-yl)methanone]
5 | 1.5 | 15 | CCc1nc2nc(C(=O)N3CC[C@H](N4CCc5ccccc5C4)[C@@H](O)C3)cn2cc1Br [Example 4, (6-bromo-7-ethylimidazo[1,2-a]pyrimidin-2-yl)((3S,4S)-4-(3,4-dihydroisoquinolin-2(1H)-yl)-3-hydroxypiperidin-1-yl)methanone]
6 | 1.3 | 6.8 | O=C(c1cn2cc(C3CC3)cnc2n1)N1CC[C@H](N2CCc3ccccc3C2)[C@@H](O)C1 [Example 3, (6-cyclopropylimidazo[1,2-a]pyrimidin-2-yl)((3S,4S)-4-(3,4-dihydroisoquinolin-2(1H)-yl)-3-hydroxypiperidin-1-yl)methanone]

— patent US12595262B2, “PRMT5 inhibitors” (MERCK SHARP & DOHME LLC, priority 2019, dated 2026)
